Experimental data from patent publication US6573275B1, “Bicyclic amines” (Syngenta Limited, priority 1995, dated 2003).

Tested on: peach aphid (Myzus persicae)
Assay: Insecticidal test against peach aphid, infested Chinese cabbage leaves sprayed
Assay type: in vivo
Conditions: peach aphid (Myzus persicae) on Chinese cabbage leaves, sprayed with 500 ppm composition unless otherwise stated, mortality assessed after 3 days
Protocol: This Example illustrates the insecticidal properties of the compounds of Formula I. The activity of the compounds of Formula I was determined using a variety of pests. The pests were treated with a liquid composition containing 500 parts per million (ppm) by weight of the compound unless otherwise stated. The compositions were made by dissolving the compound in acetone and ethanol (50:50) mixture and diluting the solutions with water containing 0.05% by weight of a wetting agent sold under the trade name “SYNPERONIC” NP8 until the liquid composition contained the required concentration of the compound. “SYNPERONIC” is a Registered Trade Mark.
The test procedure adopted with regard to each pest was basically the same and comprised supporting a number of the pests on a medium which was usually a substrate, a host plant or a foodstuff on which the pests feed, and treating either or both the medium and the pests with the compositions. The mortality of the pests was then assessed at periods usually varying from two to five days after the treatment.
In this test Chinese cabbage leaves were infested with aphids, the infested leaves were sprayed with the test composition, and the mortality assessed after 3 days.

Row | SMILES | Score (grading of mortality)
1 | CN1C2CCC1CC(C#N)(c1ccc(Cl)nn1)C2 (stereo not drawn) [Compound 41, exo-3-(6-chloropyridazin-3-yl)-endo-3-cyano-8-methyl-8-azabicyclo[3.2.1]octane] | A (A indicates 80-100% mortality)
2 | CCCN1C2CCC1CC(C#N)(c1cccnc1)C2 (stereo not drawn) [Compound 42, exo-3-(pyrid-3-yl)-endo-3-cyano-8-(prop-1-yl)-8-azabicyclo[3.2.1]octane] | A (A indicates 80-100% mortality)
3 | CN1C2CCC1CC(C#N)(c1cncc(Cl)n1)C2 (stereo not drawn) [Compound 43, exo3-(6-chloropyrazin-2-yl)-endo-3-cyano-8-methyl-8-azabicyclo[3.2.1]octane] | A (A indicates 80-100% mortality)
4 | CS(=O)(=O)CS(=O)(=O)N1C2CCC1CC(C#N)(c1cccnc1)C2 (stereo not drawn) [Compound 44, exo-3-(pyrid-3-yl)-endo-3-cyano-8-(methylsulphonylmethylsulphonyl)-8-azabicyclo[3.2.1]octane] | A (A indicates 80-100% mortality)
5 | CS(=O)(=O)N1C2CCC1CC(C#N)(c1cccnc1)C2 (stereo not shown) [Compound 45] | C (C indicates less than 40% mortality)
6 | CN1C2CCC1CC(C#N)(c1ccc(Cl)nc1)C2 (stereo not drawn) [Compound 46, exo-3-(6-chloropyrid-3-yl)-endo-3-cyano-8-methyl-8-azabicyclo[3.2.1]octane] | A (A indicates 80-100% mortality)
7 | COCN1C2CCC1CC(C#N)(c1cccnc1)C2 (stereo not shown) [Compound 47] | A (A indicates 80-100% mortality)
8 | CCOCN1C2CCC1CC(C#N)(c1cccnc1)C2 (stereo not shown) [Compound 48] | A (A indicates 80-100% mortality)
9 | N#CCN1C2CCC1CC(C#N)(c1cccnc1)C2 (stereo not shown) [Compound 49] | A (A indicates 80-100% mortality)
10 | CCOC(=O)CN1C2CCC1CC(C#N)(c1cccnc1)C2 (stereo not shown) [Compound 50] | A (A indicates 80-100% mortality)
11 | COC(=O)CN1C2CCC1CC(C#N)(c1cccnc1)C2 (stereo not drawn) [Compound 51, exo-3-(pyrid-3-yl)-endo-3-cyano-8-(methoxycarbonylmethyl)-8-azabicyclo[3.2.1]octane] | A (A indicates 80-100% mortality)
12 | CN1C2CCC1CC(C#N)(c1ccc([N+](=O)[O-])cc1F)C2 (stereo not shown) [Compound 52] | C (C indicates less than 40% mortality)
13 | CN1C2CCC1CC(C#N)(c1cccc(F)c1)C2 (stereo not shown) [Compound 53] | A (A indicates 80-100% mortality)
14 | N#CC1(c2cccnc2)CC2CCC(C1)N2CCO (stereo not shown) [Compound 54] | A (A indicates 80-100% mortality)
15 | CN1C2CCC1CC(C#N)(c1cnc(Cl)c(Cl)c1)C2 (stereo not drawn) [Compound 55, exo-3-(5,6-dichloropyrid-3-yl)-endo-3-cyano-8-methyl-8-azabicyclo[3.2.1]octane] | A (A indicates 80-100% mortality)
16 | C#CCN1C2CCC1CC(C#N)(c1cccnc1)C2 (stereo not shown) [Compound 56] | A (A indicates 80-100% mortality)
17 | CN1C2CCC1CC(C#N)(c1cccnc1)C2 (stereo not shown) [Compound 57] | A (A indicates 80-100% mortality)
18 | CC=CCN1C2CCC1CC(C#N)(c1cccnc1)C2 (stereo not shown) [Compound 58] | C (C indicates less than 40% mortality)
19 | N#CC1(c2cc(F)cc(F)c2)CC2CCC(C1)N2c1ccc([N+](=O)[O-])cc1 (stereo not shown) [Compound 59] | A (A indicates 80-100% mortality)
20 | CN1C2CCC1CC(C#N)(c1cncc(Cl)c1)C2 (stereo not drawn) [Compound 60, exo-3-(5-chloropyrid-3-yl)-endo-3-cyano-8-methyl-8-azabicyclo[3.2.1]octane] | A (A indicates 80-100% mortality)
21 | N#CC1(c2cccnc2)CC2CCC(C1)N2c1ccccc1 (stereo not shown) [Compound 61] | A (A indicates 80-100% mortality)
22 | CN1C2CCC1CC(C#N)(c1cnccn1)C2 (stereo not drawn) [Compound 62, exo-3-(pyrazin-2-yl)-endo-3-cyano-8-methyl-8-azabicyclo[3.2.1]octane] | A (A indicates 80-100% mortality)
23 | CN1C2CCC1CC(C#N)(c1cc(Cl)nc(Cl)n1)C2 (stereo not drawn) [Compound 63, exo-3-(2,6-dichloropyrimid-4-yl)-endo-3-cyano-8-methyl-8-azabicyclo[3.2.1]octane] | C (C indicates less than 40% mortality)

Row | SMILES | Score (grading of mortality)
24 | N#CC1(c2cncc(Cl)c2)CC2CCC(C1)N2CCF (stereo not shown) [Compound 64] | A (A indicates 80-100% mortality)
25 | CN1C2CCC1CC(C#N)(c1cc(Cl)nc(Cl)c1)C2 (stereo not drawn) [Compound 65, exo-3-(2,6-dichloropyrid-4-yl)-endo-3-cyano-8-methyl-8-azabicyclo[3.2.1]octane] | C (C indicates less than 40% mortality)
26 | CN1[C@@H]2CC[C@H]1C[C@](C#N)(c1cc(Cl)nc(NN)c1)C2 [Compound 66, exo-3-(2-chloro-6-hydrazinopyrid-4-yl)-endo-3-cyano-8-methyl-8-azabicyclo[3.2.1]octane] | C (C indicates less than 40% mortality)
27 | CN1C2CCC1CC(C#N)(c1ccncc1)C2 (stereo not drawn) [Compound 67, exo-3-(pyrid-4-yl)-endo-3-cyano-8-methyl-8-azabicyclo[3.2.1]octane] | A (A indicates 80-100% mortality)
28 | CN1C2CCC1CC(C#N)(c1cncc(Br)c1)C2 (stereo not drawn) [Compound 68, exo-3-(5-bromopyrid-3-yl)-endo-3-cyano-8-methyl-8-azabicyclo[3.2.1]octane] | A (A indicates 80-100% mortality)
29 | C=COC(=O)N1[C@@H]2CC[C@H]1C[C@](C#N)(c1cncc(Cl)c1)C2 [Compound 69, exo-3-(5-chloropyrid-3-yl)-endo-3-cyano-8-(vinyloxycarbonyl)-8-azabicyclo[3.2.1]octane] | A (A indicates 80-100% mortality)
30 | N#CC1(c2cncc(Cl)c2)CC2CCC(C1)N2 (stereo not drawn) [Compound 70, exo-3-(5-chloropyrid-3-yl)-endo-3-cyano-8-azabicyclo[3.2.1]octane] | A (A indicates 80-100% mortality)
31 | CN1C2CCC1CC(C#N)(c1cccc(Cl)n1)C2 (stereo not shown) [Compound 71] | A (A indicates 80-100% mortality)
32 | N#C[C@@]1(c2cncc(Cl)c2)C[C@H]2CC[C@@H](C1)N2CC(F)(F)F [Compound 72, exo-3-(5-chloropyrid-3-yl)-endo-3-cyano-8-(2,2,2-trifluoroethyl)-8-azabicyclo[3.2.1]octane] | A (A indicates 80-100% mortality)
33 | N#CC1(c2cc(F)cc(F)c2)CC2CCC(C1)N2c1ccccn1 (stereo not shown) [Compound 73] | C (C indicates less than 40% mortality)
34 | N#CC1(c2cncc(Cl)c2)CC2CCC(C1)N2c1ccccc1 (stereo not shown) [Compound 74] | A (A indicates 80-100% mortality)
35 | C#CCN1C2CCC1CC(C#N)(c1cncc(Cl)c1)C2 (stereo not shown) [Compound 75] | A (A indicates 80-100% mortality)
36 | C=CCN1C2CCC1CC(C#N)(c1cncc(Cl)c1)C2 (stereo not drawn) [Compound 76, exo-3-(5-chloropyrid-3-yl)-endo-3-cyano-8-allyl-8-azabicyclo[3.2.1]octane] | A (A indicates 80-100% mortality)
37 | COc1cncc(C2(C#N)CC3CCC(C2)N3C)c1 (stereo not drawn) [Compound 77, exo-3-(5-methoxypyrid-3-yl)-endo-3-cyano-8-methyl-8-azabicyclo[3.2.1]octane] | A (A indicates 80-100% mortality)
38 | CCN1C2CCC1CC(C#N)(c1cncc(Cl)c1)C2 (stereo not shown) [Compound 78] | A (A indicates 80-100% mortality)
39 | CCCCN1C2CCC1CC(C#N)(c1cncc(Cl)c1)C2 (stereo not shown) [Compound 79] | A (A indicates 80-100% mortality)
40 | COc1cncc(C2(C#N)CC3CCC(C2)N3C)c1 (stereo not shown) [Compound 80] | A (A indicates 80-100% mortality)
41 | CCCCCCN1C2CCC1CC(C#N)(c1cncc(Cl)c1)C2 (stereo not drawn) [Compound 81, exo-3-(5-chloropyrid-3-yl)-endo-3-cyano-8-(n-hexyl)-8-azabicyclo[3.2.1]octane] | A (A indicates 80-100% mortality)
42 | N#CC1(c2cncc(Cl)c2)CC2CCC(C1)N2C(=O)Oc1ccccc1 (stereo not shown) [Compound 82] | A (A indicates 80-100% mortality)
43 | N#CC1(c2cncc(Cl)c2)CC2CCC(C1)N2C(=O)OCC(Cl)(Cl)Cl (stereo not shown) [Compound 83] | A (A indicates 80-100% mortality)
44 | CCOC(=O)N1C2CCC1CC(C#N)(c1cncc(Cl)c1)C2 (stereo not shown) [Compound 84] | A (A indicates 80-100% mortality)
45 | N#CC1(c2cncc(Cl)c2)CC2CCC(C1)N2C(=O)OCC1c2ccccc2-c2ccccc21 (stereo not shown) [Compound 85] | A (A indicates 80-100% mortality)
46 | CCOC(=O)CN1C2CCC1CC(C#N)(c1cncc(Cl)c1)C2 (stereo not shown) [Compound 86] | A (A indicates 80-100% mortality)
